Experimental data published in ChEMBL document CHEMBL5131384, “Design, synthesis, and biological evaluation of indole-based hydroxamic acid derivatives as histone deacetylase inhibitors” (Eur J Med Chem, 2022).
Calls of active or inactive are those of the source. The rule behind the calls is not given here.

Target: T1, Histone deacetylase (Homo sapiens) (UniProt Q13547+O15379+Q9UBN7+Q92769+Q9UQL6+Q8WUI4+Q9BY41+Q96DB2+P56524+Q9UKV0+Q969S8)
Test: Inhibition of HDAC in human HCT-116 cells assessed as upregulation of acetylated alpha-tubulin level 0.1 to 1 uM incubated for 48 hrs by Western blot analysis
Type: cell-based
Conditions: dose 0.1-1 µM, DDE = dose-dependent effect

Row | Activity | SMILES
1 | Dde | COc1ccc2c(c1)cc(C(=O)NC1C3CC4CC(C3)CC1C4)n2CCCCCCC(=O)NO (stereo unspecified)

Test system: HCT-116
Test: Induction of apoptosis in human HCT-116 cells assessed as late apoptotic cells at 1 uM incubated for 48 hrs by Annexin V-FITC/propidium iodide staining-based flow cytometric analysis (reference value: 5.80 %)
Type: functional
Conditions: not given

Row | SMILES | Activity [%]
2 | COc1ccc2c(c1)cc(C(=O)NC1C3CC4CC(C3)CC1C4)n2CCCCCCC(=O)NO (stereo unspecified) | 48.8

Test system: HCT-116
Test: Inhibition of colony formation in human HCT-116 cells assessed as reduction in number of colonies at 3 nM drug medium changed every three days for 2 weeks by crystal violet staining based analysis
Type: functional, cell-based
Conditions: not given

Row | SMILES | inhibition
3 | COc1ccc2c(c1)cc(C(=O)NC1C3CC4CC(C3)CC1C4)n2CCCCCCC(=O)NO (stereo unspecified) | Active

Test system: HCT-116
Test: Inhibition of colony formation in human HCT-116 cells at 3 to 10 nM drug medium changed every three days for 2 weeks by crystal violet staining based analysis
Type: functional, cell-based
Conditions: dose 3-10 nM, DDE = dose-dependent effect

Row | SMILES | inhibition
4 | COc1ccc2c(c1)cc(C(=O)NC1C3CC4CC(C3)CC1C4)n2CCCCCCC(=O)NO (stereo unspecified) | Dde

Test system: HCT-116
Test: Induction of apoptosis in human HCT-116 cells assessed as late apoptotic cells at 0.1 uM incubated for 48 hrs by Annexin V-FITC/propidium iodide staining-based flow cytometric analysis (reference value: 5.80 %)
Type: functional
Conditions: not given

Row | SMILES | Activity [%]
5 | COc1ccc2c(c1)cc(C(=O)NC1C3CC4CC(C3)CC1C4)n2CCCCCCC(=O)NO (stereo unspecified) | 29.9

Test system: HCT-116
Test: Antiproliferative activity against human HCT-116 cells assessed as reduction in cell viability incubated for 72 hrs by WST-8 assay
Type: functional, cell-based
Conditions: HCT-116, 72 h

Row | IC50 [nM] | SMILES
6 | 140 | COc1ccc2c(c1)cc(C(=O)NC1C3CC4CC(C3)CC1C4)n2CCCCCCC(=O)NO (stereo unspecified)

Test system: HCT-116
Test: Induction of cell cycle arrest in human HCT-116 cells assessed as accumulation of cells at G2/M phase at 0.1 to 1 uM incubated for 24 hrs by flow cytometry analysis
Type: functional, cell-based
Conditions: dose 0.1-1 µM, DDE = dose-dependent effect

Row | SMILES | Activity
7 | COc1ccc2c(c1)cc(C(=O)NC1C3CC4CC(C3)CC1C4)n2CCCCCCC(=O)NO (stereo unspecified) | Dde

Test system: not listed separately
Test: Toxicity in BALB/c mouse assessed as drug tolerability at 20 to 40 mg/kg, ip adminstered once daily for 15 days
Type: organism-based
Conditions: in vivo, 360 h, dose 20-40 mg/kg, time 15 day

Row | SMILES | Activity
8 | COc1ccc2c(c1)cc(C(=O)NC1C3CC4CC(C3)CC1C4)n2CCCCCCC(=O)NO (stereo unspecified) | Non-Toxic

Test system: SGC-7901
Test: Antiproliferative activity against human SGC-7901 cells assessed as reduction in cell viability incubated for 72 hrs by WST-8 assay
Type: functional, cell-based
Conditions: SGC-7901, 72 h

Row | IC50 [nM] | SMILES
9 | 40 | COc1ccc2c(c1)cc(C(=O)NC1C3CC4CC(C3)CC1C4)n2CCCCCCC(=O)NO (stereo unspecified)

Test system: HCT-116
Test: Induction of apoptosis in human HCT-116 cells assessed as increase in cleaved PARP level at 0.1 to 1 uM incubated for 48 hrs by Western blot analysis
Type: functional, cell-based
Conditions: dose 0.1-1 µM

Row | SMILES | Activity
10 | COc1ccc2c(c1)cc(C(=O)NC1C3CC4CC(C3)CC1C4)n2CCCCCCC(=O)NO (stereo unspecified) | Active

Test system: HL-60
Test: Antiproliferative activity against human HL-60 cells assessed as reduction in cell viability incubated for 72 hrs by WST-8 assay
Type: functional, cell-based
Conditions: HL-60, 72 h

Row | IC50 [nM] | SMILES
11 | 20 | COc1ccc2c(c1)cc(C(=O)NC1C3CC4CC(C3)CC1C4)n2CCCCCCC(=O)NO (stereo unspecified)

Test system: HCT-116
Test: Induction of apoptosis in human HCT-116 cells assessed as early apoptotic cells at 0.1 uM incubated for 48 hrs by Annexin V-FITC/propidium iodide staining-based flow cytometric analysis (reference value: 1.73 %)
Type: functional
Conditions: not given

Row | SMILES | Activity [%]
12 | COc1ccc2c(c1)cc(C(=O)NC1C3CC4CC(C3)CC1C4)n2CCCCCCC(=O)NO (stereo unspecified) | 2.59

Target: Histone deacetylase 1 (Homo sapiens, UniProt Q13547)
Sequence (Q13547 whole entry): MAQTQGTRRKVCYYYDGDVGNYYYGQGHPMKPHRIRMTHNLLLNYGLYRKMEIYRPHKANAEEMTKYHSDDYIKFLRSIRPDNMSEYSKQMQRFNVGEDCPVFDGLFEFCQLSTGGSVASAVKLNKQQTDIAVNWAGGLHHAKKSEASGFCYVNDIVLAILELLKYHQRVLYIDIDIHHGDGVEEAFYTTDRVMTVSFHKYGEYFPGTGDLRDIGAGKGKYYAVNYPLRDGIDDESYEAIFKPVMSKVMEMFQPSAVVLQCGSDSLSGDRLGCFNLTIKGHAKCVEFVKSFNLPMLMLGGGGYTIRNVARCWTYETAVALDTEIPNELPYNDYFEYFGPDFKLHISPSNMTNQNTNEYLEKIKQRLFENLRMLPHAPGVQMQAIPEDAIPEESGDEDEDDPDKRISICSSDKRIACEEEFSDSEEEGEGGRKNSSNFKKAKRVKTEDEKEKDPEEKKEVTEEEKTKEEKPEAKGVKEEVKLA
Test: Inhibition of HDAC1 (unknown origin) using Boc-Lys(Ac)-AMC as substrate incubated for 60 mins by fluorescence plate reader assay
Conditions: not given

Row | IC50 [nM] | SMILES
13 | 1.16 | COc1ccc2c(c1)cc(C(=O)NC1C3CC4CC(C3)CC1C4)n2CCCCCCC(=O)NO (stereo unspecified)

Test system: HCT-116
Test: Inhibition of colony formation in human HCT-116 cells assessed as blockage of anchor growth at 10 nM drug medium changed every three days for 2 weeks by crystal violet staining based analysis
Type: functional
Conditions: HCT-116, 336 h

Row | SMILES | inhibition at 0.01 µM [%]
14 | COc1ccc2c(c1)cc(C(=O)NC1C3CC4CC(C3)CC1C4)n2CCCCCCC(=O)NO (stereo unspecified) | 100

Target: T1, Histone deacetylase (Homo sapiens)
Test: Inhibition of HDAC in human HCT-116 cells assessed as upregulation of acetylated H3 level at 0.1 to 1 uM incubated for 48 hrs by Western blot analysis
Type: cell-based
Conditions: dose 0.1-1 µM, DDE = dose-dependent effect

Row | Activity | SMILES
15 | Dde | COc1ccc2c(c1)cc(C(=O)NC1C3CC4CC(C3)CC1C4)n2CCCCCCC(=O)NO (stereo unspecified)

Target: T2, Protein deacetylase HDAC6 (Homo sapiens, UniProt Q9UBN7)
T2 sequence (Q9UBN7 whole entry): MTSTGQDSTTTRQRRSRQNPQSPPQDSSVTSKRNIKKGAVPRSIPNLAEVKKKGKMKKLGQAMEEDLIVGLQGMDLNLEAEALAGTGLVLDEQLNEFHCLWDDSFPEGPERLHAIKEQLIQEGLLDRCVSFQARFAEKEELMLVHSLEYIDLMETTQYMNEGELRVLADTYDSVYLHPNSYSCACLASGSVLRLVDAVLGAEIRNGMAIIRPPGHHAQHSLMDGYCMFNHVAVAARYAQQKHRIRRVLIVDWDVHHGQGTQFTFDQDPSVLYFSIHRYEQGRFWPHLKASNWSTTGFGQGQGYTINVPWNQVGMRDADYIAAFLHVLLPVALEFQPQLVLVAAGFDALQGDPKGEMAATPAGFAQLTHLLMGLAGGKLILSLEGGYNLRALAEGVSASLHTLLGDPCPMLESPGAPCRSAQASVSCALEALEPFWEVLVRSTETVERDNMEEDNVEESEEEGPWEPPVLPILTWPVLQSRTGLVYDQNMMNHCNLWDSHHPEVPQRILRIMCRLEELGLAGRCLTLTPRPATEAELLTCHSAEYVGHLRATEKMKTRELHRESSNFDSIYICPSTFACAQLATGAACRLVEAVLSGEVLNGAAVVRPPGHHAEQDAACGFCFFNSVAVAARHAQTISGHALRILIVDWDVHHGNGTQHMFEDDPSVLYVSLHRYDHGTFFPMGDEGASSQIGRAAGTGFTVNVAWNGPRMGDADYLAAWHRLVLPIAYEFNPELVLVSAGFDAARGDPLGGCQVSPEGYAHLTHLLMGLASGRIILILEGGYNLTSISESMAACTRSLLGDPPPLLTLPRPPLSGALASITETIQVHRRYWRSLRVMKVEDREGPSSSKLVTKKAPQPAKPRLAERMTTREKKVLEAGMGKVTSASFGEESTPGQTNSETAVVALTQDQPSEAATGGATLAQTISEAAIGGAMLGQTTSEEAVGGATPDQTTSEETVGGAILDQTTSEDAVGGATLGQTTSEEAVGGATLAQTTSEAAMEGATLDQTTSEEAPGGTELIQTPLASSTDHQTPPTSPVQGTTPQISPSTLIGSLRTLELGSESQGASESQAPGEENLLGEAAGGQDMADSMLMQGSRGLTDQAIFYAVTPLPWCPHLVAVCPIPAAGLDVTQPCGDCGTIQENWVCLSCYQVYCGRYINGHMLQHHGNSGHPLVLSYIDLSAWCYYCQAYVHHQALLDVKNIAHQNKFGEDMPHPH
Test: Inhibition of HDAC6 (unknown origin) using Boc-Lys(Ac)-AMC as substrate incubated for 60 mins by fluorescence plate reader assay
Conditions: not given

Row | IC50 [nM] | SMILES
16 | 2.3 | COc1ccc2c(c1)cc(C(=O)NC1C3CC4CC(C3)CC1C4)n2CCCCCCC(=O)NO (stereo unspecified)

Test system: Mus musculus
Test: In vivo inhibition of HDAC in BALB/c mouse xenografted with HCT-116 cells assessed as upregulation of acetylated H3 expression at 20 to 40 mg/kg, ip for 15 days by Western blot analysis
Type: functional, organism-based
Conditions: dose 20-40 mg/kg, time 15.0 day, DDE = dose-dependent effect

Row | SMILES | Activity
17 | COc1ccc2c(c1)cc(C(=O)NC1C3CC4CC(C3)CC1C4)n2CCCCCCC(=O)NO (stereo unspecified) | Dde

Test system: not listed separately
Test: Toxicity in BALB/c mouse assessed as body weight loss at 20 to 40 mg/kg, ip adminstered once daily for 15 days
Type: organism-based
Conditions: in vivo, 360 h, dose 20-40 mg/kg, time 15 day

Row | SMILES | Activity
18 | COc1ccc2c(c1)cc(C(=O)NC1C3CC4CC(C3)CC1C4)n2CCCCCCC(=O)NO (stereo unspecified) | Non-Toxic

Test system: HCT-116
Test: Antitumor activity against human HCT-116 cells xenografted in BALB/c mouse assessed as inhibition of tumor growth at 40 mg/kg, ip adminstered once daily measured every three days for 15 days by vernier caliper method relative to control
Type: functional
Design: scale not given: the % may be the effect or the level left
Conditions: time 15 day

Row | SMILES | Activity [%]
19 | COc1ccc2c(c1)cc(C(=O)NC1C3CC4CC(C3)CC1C4)n2CCCCCCC(=O)NO (stereo unspecified) | 71.79

Test system: HCT-116
Test: Induction of apoptosis in human HCT-116 cells assessed as early apoptotic cells at 1 uM incubated for 48 hrs by Annexin V-FITC/propidium iodide staining-based flow cytometric analysis (reference value: 1.73 %)
Type: functional
Conditions: not given

Row | SMILES | Activity [%]
20 | COc1ccc2c(c1)cc(C(=O)NC1C3CC4CC(C3)CC1C4)n2CCCCCCC(=O)NO (stereo unspecified) | 3.34

Test system: A549
Test: Antiproliferative activity against human A549 cells assessed as reduction in cell viability incubated for 72 hrs by WST-8 assay
Type: functional, cell-based
Conditions: A549, 72 h

Row | IC50 [nM] | SMILES
21 | 960 | COc1ccc2c(c1)cc(C(=O)NC1C3CC4CC(C3)CC1C4)n2CCCCCCC(=O)NO (stereo unspecified)

Test system: HCT-116
Test: Inhibition of colony formation in human HCT-116 cells assessed as reduction in size of colonies at 3 nM drug medium changed every three days for 2 weeks by crystal violet staining based analysis
Type: functional, cell-based
Conditions: not given

Row | SMILES | inhibition
22 | COc1ccc2c(c1)cc(C(=O)NC1C3CC4CC(C3)CC1C4)n2CCCCCCC(=O)NO (stereo unspecified) | Active

Test system: HCT-116
Test: Antitumor activity against human HCT-116 cells xenografted in BALB/c mouse assessed as inhibition of tumor growth at 20 mg/kg, ip adminstered once daily measured every three days for 15 days by vernier caliper method relative to control
Type: functional
Design: scale not given: the % may be the effect or the level left
Conditions: time 15 day

Row | SMILES | Activity [%]
23 | COc1ccc2c(c1)cc(C(=O)NC1C3CC4CC(C3)CC1C4)n2CCCCCCC(=O)NO (stereo unspecified) | 44.54

Test system: MDA-MB-231
Test: Antiproliferative activity against human MDA-MB-231 cells assessed as reduction in cell viability incubated for 72 hrs by WST-8 assay
Type: functional, cell-based
Conditions: MDA-MB-231, 72 h

Row | IC50 [nM] | SMILES
24 | 460 | COc1ccc2c(c1)cc(C(=O)NC1C3CC4CC(C3)CC1C4)n2CCCCCCC(=O)NO (stereo unspecified)

Test system: Mus musculus
Test: In vivo inhibition of HDAC in HCT-116 cells xenografted in BALB/c mouse assessed as upregulation of alpha tubulin expression at 20 to 40 mg/kg, ip for 15 days by Western blot analysis
Type: functional, organism-based
Conditions: dose 20-40 mg/kg, time 15.0 day, DDE = dose-dependent effect

Row | SMILES | Activity
25 | COc1ccc2c(c1)cc(C(=O)NC1C3CC4CC(C3)CC1C4)n2CCCCCCC(=O)NO (stereo unspecified) | Dde

Test system: HCT-116
Test: Induction of apoptosis in human HCT-116 cells at 0.1 to 1 uM incubated for 48 hrs by Annexin V-FITC/propidium iodide staining-based flow cytometric analysis
Type: functional, cell-based
Conditions: dose 0.1-1 µM, DDE = dose-dependent effect

Row | SMILES | Activity
26 | COc1ccc2c(c1)cc(C(=O)NC1C3CC4CC(C3)CC1C4)n2CCCCCCC(=O)NO (stereo unspecified) | Dde
